Laboratory results from US8765953B2, “Compounds and methods for the treatment of pain and other diseases” (Aquilus Pharmaceuticals, Inc., priority 2008, dated 2014).

Tests used:
[1] = tested on: spinal nerve ligation (SNL) mouse model; assay: Intraperitoneal (i.p.) SNL-mouse model of neuropathic pain, von Frey mechanical allodynia; type: in vivo
From the text: To measure the neuropathic pain inhibiting affects of the MMP inhibitors of the present invention, the spinal nerve ligation (SNL) mouse model was run on a select number of compounds. This model which began with the work of Bennet and coworkers (Bennet, G. J. et al. Pain, 33, (1988), 87-107) and was optimized by Kim and Chung (Kim, S. H.; Chung, J. M. Pain, 50, (1992), 355-363) entails first, under magnification, the removal of one-third of the transverse process and then identifying and then dissecting free the L5 spinal nerve from the adjacent L4 spinal nerve in the mouse. The L5 spinal nerve is then tightly ligated using 6.0 silk suture. The nerve injury leads to hyperalgesia which manifests itself by enhanced responses to mechanical, heat and/or cooling stimuli. In this case, mechanical hyperalgesia is tested via Von Frey monofilaments in which filaments of varying thicknesses and bending force are individually applied to the plantar surface of the foot of the mouse. The threshold force necessary for paw withdrawal decreases dramatically after the nerve surgery. Potent pain inhibitors will reverse this affect resulting in greater force needing to be applied to cause the rodent paw to withdrawal.
Tactile Allodynia Test. Mechanical allodynia was measured using the calibrated von Frey filaments (Semmes-Weinstein monofilaments; Stoelting, Wood Dale, Ill., U.S.A.). The plantar surface of the left injured paw of each animal was tested as described by Chaplan et al. (Journal of Neuroscience Methods, 53, (1994), 55-63). The Fifty percent paw withdrawal threshold response was determined by sequentially increasing or decreasing the stimulus strength according to the “up-down method” of Dixon (Annual Review Pharmacology Toxicology, 20, (1980), 441-462). For mice, […] von Frey filaments were used, with approximately equal logarithmic incremental bending forces (von Frey number: 1.65, 2.36, 2.44, 2.83, 3.22, 3.61, 3.84, 4.08, and 4.17; equivalent to 0.005, 0.02, 0.03, 0.07, 0.17, 0.41, 0.69, 1.20, and 1.48 g force, respectively).
Prior to testing, each animal was placed in a suspended clear plastic chamber with a wire mesh bottom and acclimated for 15 minutes. Testing was initiated with the 0.07 g (handle marking of 2.83) applied perpendicularly to the plantar surface of the affected hind paw; each filament was applied with enough pressure to cause a buckle effect. The absence of a paw lifting/withdrawal response after 6 s prompted the use of the next higher weight filament. Paw withdrawal, indicating a positive response, prompted the use of a weaker filament. After the initial positive response (i.e., paw withdrawal), the testing continued for four additional measurements, and was used to calculate the response threshold. Four consecutive positive responses received a score of 0.001 g, and five consecutive negative responses (i.e., no paw withdrawal) received a score of 1.5 g.
Analyses for Tactile Allodynia Testing. The 50% paw withdrawal threshold was calculated (PWT; Luo and Calcutt, J. Pharmacology Experimental Therapeutics, 303(3), (2002), 1199-1205; Chaplan et al. Journal of Neuroscience Methods, 53, (1994), 55-63) using the formula: 10(Xf+κδ)/10,000 where Xf is the final von Frey filament used (log units), κ is a value that analyzes the response pattern (taken from the table published by Chaplan et al., 1994), and δ is the mean difference between stimuli (log units).
Except for the mode of administration, number of mice/group and the number of injections and amount of compound per injection, the rest of the study was done in the same manner (in regards to the surgeries and tactile allodynia testing and analysis) as Experiment 110. 3.2 mg of each of the MMP inhibitors #5 and #118 were dissolved in 320 microliters of DMSO. To the solution was then added 32 microliters of Tween 80, followed by 2850 microliters of phosphate buffered saline (PBS). This gave a final concentration of 10% DMSO, 1% Tween and 1 mg/ml compound. […]

[2] = In-vitro human microsomal stability; type: in vitro ADME; conditions: human microsomes, 1 microMolar compound, at T = 60 minutes
Procedure: Human and mouse microsomal stability was determined for select compounds following the method of Houston (Houston, J. B; Biochem. Pharmacol. 47, (1994),1469).
1 μM concentration of compound and separate human and mouse microsomes (0.3 mg/mL, BD bioscience) were used in the in-vitro assay. To ensure proper energy supply for microsomal degradation of compound, an energy regenerating system comprised of 100 mM potassium phosphate, 2 mM NADPH, 3 mM MgCl2, pH=7.4. and the microsomal protein is added to each sample and the resulting suspension is then incubated in duplicate for 60 min at 37° C. in a rotary shaker. A control is run for each test agent in duplicate omitting NADPH to detect NADPH-free degradation. At T=0 and T=60 min., an aliquot is removed from each experimental and control reaction and then mixed with an equal volume of ice-cold Stop Solution (consisting of 0.3% acetic acid in acetonitrile containing haloperidol and diclofenac as internal standards). […] The samples are then centrifuged to remove precipitated protein, and the supernatants are then analyzed by LC-MS/MS to determine the percentage of compound remaining. […] After separation on a C18 reverse phase HPLC column (Agilent, Waters, or equivalent) using an acetonitrile-water gradient system, peaks were analyzed by mass spectrometry (MS) using ESI ionization in MRM mode.

[3] = i.p. 100 μl/mouse daily (approx. 3.3 mg/Kg), day 1-5

With `Cc1ccc(C#Cc2ccc(S(=O)(=O)N[C@H](Cc3c[nH]c4ccccc34)C(=O)O)s2)cc1` [Compound 5, (R)-3-(1H-Indol-3-yl)-2-(5-p-tolylethynyl-thiophene-2-sulfonylamino)-propionic acid] the “Paw withdrawal threshold, mean, Day 1” value [1, 3] was 0.078 grams, the “Paw withdrawal threshold, mean, Day 2” value [1, 3] was 0.117 grams and the “Paw withdrawal threshold, mean, Day 5” value [1, 3] was 0.238 grams. The “Paw withdrawal threshold, mean, Day 6” value [1, 3] was 0.099 grams, the “Paw withdrawal threshold, mean, Day 7” value [1, 3] was 0.128 grams and the “Paw withdrawal threshold, mean, Day 0 Postoperative Baseline” value ([1]; i.p. study, baseline before treatment) was 0.046 grams. For the same compound, the “Mean Remaining Parent with NADPH (%)” value ([2]; with NADPH) was 86% and the “Mean Remaining Parent without NADPH (%)” value ([2]; without NADPH (control)) was 89%.
